# Assay results as given in paper PMC5034043 (The Journal of Biological Chemistry, 2016).
# Where two headings read alike, the source gives them in different places.
# Tested on: T1, synaptosomal proteome
# T1 construct: from tissue; host or cells: brain synaptosomes of male C57/B6 mice
# Type: binding, mouse
# Protocol: Synaptosomes were resuspended to 1 mg of protein/ml in HEPES buffer medium (in mM: 140 NaCl, 5 KCl, 5 NaHCO3, 1.2 NaH2PO4, 1 MgCl2, 10 glucose, and 10 HEPES (pH 7.4)). […] The samples were allowed to equilibrate for 5 min before being transferred to a parafilm-sealed 1-mm path length quartz cuvette. The sample was then irradiated for 20 min at a peak bandwidth of 350 nm (Rayonet RPR-3500 lamp) ∼6 cm from the light source. Non-irradiated samples were left in the dark at ambient temperature (22–25 °C) for 20 min. All remaining procedures were conducted with restricted light exposure.
# To 750 μg of photolabeled or control synaptosome samples, 40 μl of 10% SDS and 2 μl of 5 mM DTT in water were added. Samples were then vortexed, heated for 10 min at 65 °C, and then briefly cooled. Final concentrations of 150 μM azide-biotin (Click Chemistry Tools), 2 mM tris(3-hydroxypropyltriazolylmethyl)amine (Sigma), 1 mM ascorbic acid (Sigma), and 1 mM CuSO4·5H2O (Sigma) were added to each sample and vortexed vigorously. The samples were left in the dark at ambient temperature (22–25 °C) for 1 h with mild agitation. Directly to each sample 4× volume chilled methanol, 1.5× chilled chloroform, and 3× chilled double distilled H2O were added. Samples were vortexed vigorously and centrifuged at 1,400 × g for 30 min at 4 °C. Both liquid layers were carefully removed, and the protein pellet was washed with 2 ml of 1:1 (v/v) chilled methanol/chloroform. Samples were centrifuged at 3,500 × g for 30 min at 4 °C. Protein pellets were briefly air-dried before further processing.
# 750 μg of biotin-conjugated protein sample was resuspended in 500 μl of 25 mM NH4HCO3 and 6 M urea in water. Next, 150 μl of 5% Triton X-100 in water, 50 μl of 10% SDS in water, and 1.5 μl of 0.5 M DTT were added. The samples were heated for 15 min at 65 °C. After briefly cooling, 14 μl of 0.5 M iodoacetamide in water was added, and the sample was left in the dark for 45 min. […] The supernatant was diluted to 4 ml with PBS, and 2 ml of PBS containing 100 μl of 50% streptavidin-agarose resin (Thermo Scientific) was added. Biotinylated proteins within the sample were captured over resin overnight at 4 °C with mild agitation. The resin was first washed with 6 ml of 1% SDS in PBS, and then 7 ml of 0.1 M urea in PBS followed by 10 ml of PBS. The resin underwent a final wash with 0.9 ml of 50 mM Tris-HCl and 1 mM CaCl2 in water (pH 8.0) and then resuspended in 200 μl of 50 mM Tris-HCl, 1 mM CaCl2 in water (pH 8.0), and 2 μg of porcine sequencing grade trypsin (Promega). Samples were digested overnight at 37 °C. Samples were then centrifuged at 2,000 × g for 4 min, and digest supernatant was decanted. Beads were washed in 100 μl of PBS centrifuged at 5,200 × g for 5 min, and the wash was combined with the digest supernatant. To the combined sample, trifluoroacetic acid (TFA) was added to 0.4% (v/v) or until pH <2. The sample was desalted with Oasis C18 10-mg columns (Waters) as described previously ([66]). The eluted sample was dried by speed vac and resuspended in 0.1 M HEPES buffer (pH 8.5). […] Appropriate corresponding TMTsixplex^TM-labeled samples were pooled and dried by speed vac. The combined samples were resuspended in 0.5% acetic acid in water and pH-corrected with acetic acid until pH was <2. 40 μg of protein was desalted with C18 stage tips prepared in-house and dried by speed vac.
# Samples were resuspended in 10 mM KH2PO4 (pH 2.6), 30% acetonitrile (v/v) in water, and fractionated by off-line strong cation exchange chromatography prior to mass spectrometry (MS) analysis similar to as reported previously ([66]). The full synaptosome proteome control was prepared similarly without TMTsixplex^TM labeling.
# All TMT samples were analyzed with three-stage mass spectrometry (MS3) TMTsixplex^TM quantification workflow as described previously ([34]).
# [1] = protein A2AGI3 Neuroligin-3 (Nlgn3)
# [2] = protein A2AWI7 Endophilin-B2 (Sh3glb2)
# [3] = protein D3Z5T2 Armadillo repeat-containing protein 10 (Armc10)
# [4] = protein E9Q3V6 Septin-2 (Sept2)
# [5] = protein F7C846 Metaxin-1 (Mtx1)
# [6] = protein F8WGD9 1-acyl-sn-glycerol-3-phosphate acyltransferase epsilon (Agpat5)
# [7] = protein G3UYZ1 Immunoglobulin superfamily member 8 (Igsf8)
# [8] = protein G5E829 Plasma membrane calcium-transporting ATPase 1 (Atp2b1)
# [9] = protein H3BL44 Calcium-transporting ATPase (Atp2c1)
# [10] = protein O09111 NADH dehydrogenase [ubiquinone] 1 beta subcomplex subunit 11, mitochondrial (Ndufb11)
# [11] = protein O35114 Lysosome membrane protein 2 (Scarb2)
# [12] = protein O35526 Syntaxin-1A (Stx1a)
# [13] = protein O35874 Neutral amino acid transporter A (Slc1a4)
# [14] = protein O35963 Ras-related protein Rab-33B (Rab33b)
# [15] = protein O55022 Membrane-associated progesterone receptor component 1 (Pgrmc1)
smiles,measurement,setting,value
"CC(C)c1cccc(C(C)C)c1O [propofol, 2,6-diisopropylphenol, reference compound]",% propofol protection,D3Z2J6 Tmx2,70%
same,% propofol protection,E9PUL5 Prrt2,72%
same,Log2( Mean 'UV/ UV+propofol'),E9PUL5 Prrt2,1.75
same,% propofol protection,P07724 Alb,75%
same,Log2( Mean 'UV/ UV+propofol'),P07724 Alb,1.84
same,% propofol protection,P12787 Cox5a,76%
same,% propofol protection,P16332 Mut,72%
same,Log2( Mean 'UV/ UV+propofol'),P16332 Mut,1.79
same,Log2( Mean 'UV/ UV+propofol'),P23242 Gja1,1.15
same,Log2( Mean 'UV/ UV+propofol'),P35279 Rab6a,1.22
same,% propofol protection,P51150 Rab7a,73%
same,Log2( Mean 'UV/ UV+propofol'),P51150 Rab7a,1.72
same,% propofol protection,P54071 Idh2,71%
same,Log2( Mean 'UV/ UV+propofol'),P54071 Idh2,1.75
same,Log2( Mean 'UV/ UV+propofol'),P61620 Sec61a1,1.22
same,% propofol protection,P62812 Gabra1,70%
same,Log2( Mean 'UV/ UV+propofol'),P63037 Dnaja1,1.24
same,% propofol protection,P63044 Vamp2,71%
same,% propofol protection,P63213 Gng2,75%
same,Log2( Mean 'UV/ UV+propofol'),P63213 Gng2,1.98
same,% propofol protection,P97445 Cacna1a,70%
same,% propofol protection,Q5SW88 Rab1,73%
same,Log2( Mean 'UV/ UV+propofol'),Q5SW88 Rab1,1.71
same,% propofol protection,Q8BLF1 Nceh1,71%
same,Log2( Mean 'UV/ UV+propofol'),Q8BLF1 Nceh1,1.72
same,% propofol protection,Q8BXV2 Bri3bp,75%
same,Log2( Mean 'UV/ UV+propofol'),Q8BXV2 Bri3bp,1.93
same,% propofol protection,Q8C3X2 Ccdc90b,75%
same,Log2( Mean 'UV/ UV+propofol'),Q8C3X2 Ccdc90b,1.94
same,% propofol protection,Q8K1Z0 Coq9,73%
same,Log2( Mean 'UV/ UV+propofol'),Q8K1Z0 Coq9,1.79
same,% propofol protection,Q8K221 Arfip2,70%
same,% propofol protection,Q8R5J9 Arl6ip5,75%
same,Log2( Mean 'UV/ UV+propofol'),Q8R5J9 Arl6ip5,1.93
same,% propofol protection,Q9CQQ7 Atp5f1,70%
same,% propofol protection,Q9CQS4 Slc25a46,76%
same,Log2( Mean 'UV/ UV+propofol'),Q9CXJ4 Abcb8,1.18
same,% propofol protection,Q9CZS1 Aldh1b1,75%
same,Log2( Mean 'UV/ UV+propofol'),Q9CZS1 Aldh1b1,1.96
same,% propofol protection,Q9D2P8 Mobp,76%
same,Log2( Mean 'UV/ UV+propofol'),Q9D5T0 Atad1,1.22
same,% propofol protection,Q9D6D0 Slc25a27,75%
same,% propofol protection,Q9D6K8 Fundc2,71%
same,Log2( Mean 'UV/ UV+propofol'),Q9D6K8 Fundc2,1.61
same,% propofol protection,Q9DAS9 Gng12,76%
same,% propofol protection,Q9DC70 Ndufs7,70%
same,Log2( Mean 'UV/ UV+propofol'),Q9EP69 Sacm1l,1.23
same,% propofol protection,Q9WV54 Asah1,72%
same,Log2( Mean 'UV/ UV+propofol'),Q9WV54 Asah1,1.72
same,Log2( Mean 'UV/ UV+propofol'),Q9Z2I0 Letm1,1.22
same,% propofol protection,Q99J08 Sec14l2,72%
same,Log2( Mean 'UV/ UV+propofol'),Q99J08 Sec14l2,1.67
same,Log2( Mean 'UV/ UV+propofol'),Q99JY8 Ppap2b,1.22
same,% propofol protection,Q00915 Rbp1,75%
same,Log2( Mean 'UV/ UV+propofol'),Q00915 Rbp1,1.96
same,% propofol protection,Q64133 Maoa,73%
same,Log2( Mean 'UV/ UV+propofol'),Q64133 Maoa,1.78
same,% propofol protection,[1],58%
same,Log2( Mean 'UV/ UV+propofol'),[1],1.22
same,% propofol protection,[2],56%
same,Log2( Mean 'UV/ UV+propofol'),[2],1.04
same,% propofol protection,[3],55%
same,Log2( Mean 'UV/ UV+propofol'),[3],1.05
same,% propofol protection,[4],54%
same,Log2( Mean 'UV/ UV+propofol'),[4],1.08
same,% propofol protection,[5],55%
same,Log2( Mean 'UV/ UV+propofol'),[5],1.11
same,% propofol protection,[6],57%
same,Log2( Mean 'UV/ UV+propofol'),[6],1.12
same,% propofol protection,[7],52%
same,Log2( Mean 'UV/ UV+propofol'),[7],0.97
same,% propofol protection,[8],55%
same,Log2( Mean 'UV/ UV+propofol'),[8],1.01
same,% propofol protection,[9],51%
same,Log2( Mean 'UV/ UV+propofol'),[9],0.88
same,% propofol protection,[10],56%
same,Log2( Mean 'UV/ UV+propofol'),[10],1.15
same,% propofol protection,[11],53%
same,Log2( Mean 'UV/ UV+propofol'),[11],1.00
same,% propofol protection,[12],57%
same,Log2( Mean 'UV/ UV+propofol'),[12],1.15
same,% propofol protection,[13],53%
same,Log2( Mean 'UV/ UV+propofol'),[13],1.03
same,% propofol protection,[14],55%
same,Log2( Mean 'UV/ UV+propofol'),[14],1.06
same,% propofol protection,[15],51%
same,Log2( Mean 'UV/ UV+propofol'),[15],1.00
